Structures can show the parent of a compound that is named as a salt.
Tests used:
[1] = tested on: Human immunodeficiency virus 1; experiment: Antiviral activity against HIV1 3B infected in human MT4 cells assessed as inhibition of virus-induced […] after 5 days by MTT assay; type: functional, organism-based; conditions: Human immunodeficiency virus 1, 3B, MT4, 120 h
[2] = tested on: Human immunodeficiency virus 2; experiment: Antiviral activity against HIV2 ROD infected in human MT4 cells assessed as inhibition of virus-induced […] after 5 days by MTT assay; type: functional, organism-based; conditions: Human immunodeficiency virus 2, ISOLATE ROD, MT4, 120 h
[3] = tested on: Human immunodeficiency virus 1; experiment: Antiviral activity against HIV1 RES056 expressing reverse transcriptase K103N + Y181C mutant infected in human MT4 cells assessed as inhibition of virus-induced […] after 5 days by MTT assay; type: functional, organism-based; conditions: Human immunodeficiency virus 1, RES056, MT4, 120 h
[4] = Cytotoxicity against mock-infected human MT4 cells after 5 days by MTT assay; type: cell-based
[5] = target: Human immunodeficiency virus type 1 reverse transcriptase (Human immunodeficiency virus 1, UniProt Q72547); experiment: Inhibition of HIV1 reverse transcriptase assessed as reduction in biotin-dUTP incorporation using poly(rA)-oligo(dT) as template/primer and digoxigenin-/biotin-labeled dUTP nucleotides incubated for 1 hr
in vitro = conditions: human, MT4 cells, mock-infected (CC50) and HIV1 3B infected (EC50)
Description: Selectivity index, ratio of CC50 for mock-infected human MT4 cells to EC50 for HIV1 3B infected in human MT4 cells

Structure (SMILES) | EC50 [1] [µM] | EC50 [2] [µM] | EC50 [3] [µM] | CC50 at 120 h [4] [µM] | IC50 [5] [µM] | selectivity ratio (in vitro)
Cc1cc(C#N)cc(C)c1Oc1cc(Nc2ccc(C#N)cc2)ncc1C(=O)NCCN(C)C | > 8.8 | > 7.5 | > 23.2 | 23.2 | 25.8 | ≤ 3
CCCNC(=O)c1cnc(Nc2ccc(C#N)cc2)cc1Oc1c(C)cc(C#N)cc1C | 0.54 | > 170 | > 170 | 170 | 4.14 | 321
COCCNC(=O)c1cnc(Nc2ccc(C#N)cc2)cc1Oc1c(C)cc(C#N)cc1C | 1.74 | > 61 | > 61 | 61 | 11.3 | 35
Cc1cc(C#N)cc(C)c1Oc1cc(Nc2ccc(C#N)cc2)ncc1C(=O)NCC1CC1 | 0.85 | > 146 | > 146 | > 146 | 4.25 | ≥ 175
C#CCNC(=O)c1cnc(Nc2ccc(C#N)cc2)cc1Oc1c(C)cc(C#N)cc1C | 0.24 | > 167 | > 167 | 167 | 1.29 | 703
COC(CNC(=O)c1cnc(Nc2ccc(C#N)cc2)cc1Oc1c(C)cc(C#N)cc1C)OC | 4.54 | > 90.6 | > 90.6 | 90.6 | 11.4 | 20
Cc1cc(C#N)cc(C)c1Oc1cc(Nc2ccc(C#N)cc2)ncc1C(=O)NC1CC1 | 0.31 | > 231 | > 231 | 231 | 3.37 | 784
Cc1cc(C#N)cc(C)c1Oc1cc(Nc2ccc(C#N)cc2)ncc1C(=O)NCC1CCCO1 (stereo unspecified) | 3.1 | > 142 | > 142 | 143 | 10.9 | 46
C=CCNC(=O)c1cnc(Nc2ccc(C#N)cc2)cc1Oc1c(C)cc(C#N)cc1C | 0.24 | > 207 | > 207 | 207 | 2.85 | 625
Cc1cc(C#N)cc(C)c1Oc1cc(Nc2ccc(C#N)cc2)ncc1C(=O)NCCC#N | 0.69 | > 65.8 | > 65.8 | 65.8 | 3.94 | 97
Cc1cc(C#N)cc(C)c1Oc1cc(Nc2ccc(C#N)cc2)ncc1C(N)=O | 0.05 | > 326 | > 326 | > 326 | 0.08 | > 6200
Cc1cc(C)c(Oc2cc(Nc3ccc(C#N)cc3)ncc2C(=O)NCCN(C)C)c(C)c1 | 0.63 | > 16.7 | > 16.7 | 4.67 | 3.45 | 7
CCCNC(=O)c1cnc(Nc2ccc(C#N)cc2)cc1Oc1c(C)cc(C)cc1C | 0.055 | > 11.1 | > 11.2 | 18.9 | 0.32 | 335
COCCNC(=O)c1cnc(Nc2ccc(C#N)cc2)cc1Oc1c(C)cc(C)cc1C | 0.067 | > 24 | 7.8 | 24 | 0.52 | 359
Cc1cc(C)c(Oc2cc(Nc3ccc(C#N)cc3)ncc2C(=O)NCC2CC2)c(C)c1 | 0.11 | > 30.6 | > 30.6 | 30.6 | 0.68 | 264
C#CCNC(=O)c1cnc(Nc2ccc(C#N)cc2)cc1Oc1c(C)cc(C)cc1C | 0.029 | > 73 | 6.1 | 73 | 0.07 | 2470
COC(CNC(=O)c1cnc(Nc2ccc(C#N)cc2)cc1Oc1c(C)cc(C)cc1C)OC | 0.28 | > 23.2 | > 23.2 | 23.2 | 1.89 | 83
Cc1cc(C)c(Oc2cc(Nc3ccc(C#N)cc3)ncc2C(=O)NC2CC2)c(C)c1 | 0.24 | > 25.7 | > 25.8 | 25.8 | 0.23 | 103
Cc1cc(C)c(Oc2cc(Nc3ccc(C#N)cc3)ncc2C(=O)NCC2CCCO2)c(C)c1 (stereo unspecified) | 0.18 | > 274 | > 274 | > 274 | 1.2 | > 1490
C=CCNC(=O)c1cnc(Nc2ccc(C#N)cc2)cc1Oc1c(C)cc(C)cc1C | 0.058 | > 21.5 | 10.1 | 21.3 | 0.17 | 364
Cc1cc(C)c(Oc2cc(Nc3ccc(C#N)cc3)ncc2C(=O)NCCC#N)c(C)c1 | 0.033 | > 9.9 | > 9.89 | 9.89 | 0.19 | 310
Cc1cc(C)c(Oc2cc(Nc3ccc(C#N)cc3)ncc2C(N)=O)c(C)c1 | 0.027 | > 336 | > 336 | > 336 | 0.02 | > 12500
CC(C)Nc1cccnc1N1CCN(C(=O)c2cc3cc(NS(C)(=O)=O)ccc3[nH]2)CC1 [DELAVIRDINE MESYLATE] | 0.66 |  | > 43.8 | > 43.8 |  | > 67
O=c1[nH]cnc2c1ncn2[C@H]1CC[C@@H](CO)O1 [DIDANOSINE] | 23.2 | 44.9 |  | > 212 |  | > 9
O=C1Nc2ccc(Cl)cc2[C@@](C#CC2CC2)(C(F)(F)F)O1 [EFAVIRENZ] | 0.0063 |  |  | > 6.34 |  | 
Cc1cc(C#N)cc(C)c1Oc1nc(Nc2ccc(C#N)cc2)nc(N)c1Br [ETRAVIRINE] | 0.0041 |  | 0.025 | > 4.59 |  | > 1130
Nc1ccn([C@@H]2CS[C@H](CO)O2)c(=O)n1 [LAMIVUDINE] | 2.22 | 8.81 |  | > 87.2 |  | > 39
Cc1ccnc2c1NC(=O)c1cccnc1N2C1CC1 [NEVIRAPINE] | 0.31 |  | > 7.58 | > 15 |  | 
Cc1cn([C@H]2C[C@H](N=[N+]=[N-])[C@@H](CO)O2)c(=O)[nH]c1=O [ZIDOVUDINE] |  | 0.0067 | 0.01 | > 93.5 |  | 
